{"source": "ChEMBL document CHEMBL1128783", "about": "“N-Methyl and N-cyclopropylmethyl-14,14-[dithiobis[(2-oxo-2,1-ethanediyl)imino]]bis(7,8-dihydro-5-methyl-morphinone) MET-TAMO and N-CPM-MET-TAMO: Synthesis and opioid binding properties” (Bioorg Med Chem Lett, 1995)", "key": {"[1]": {"molecular_target": "T1, Mu-type opioid receptor (Bos taurus, UniProt P79350)", "T1 sequence (P79350 whole entry)": "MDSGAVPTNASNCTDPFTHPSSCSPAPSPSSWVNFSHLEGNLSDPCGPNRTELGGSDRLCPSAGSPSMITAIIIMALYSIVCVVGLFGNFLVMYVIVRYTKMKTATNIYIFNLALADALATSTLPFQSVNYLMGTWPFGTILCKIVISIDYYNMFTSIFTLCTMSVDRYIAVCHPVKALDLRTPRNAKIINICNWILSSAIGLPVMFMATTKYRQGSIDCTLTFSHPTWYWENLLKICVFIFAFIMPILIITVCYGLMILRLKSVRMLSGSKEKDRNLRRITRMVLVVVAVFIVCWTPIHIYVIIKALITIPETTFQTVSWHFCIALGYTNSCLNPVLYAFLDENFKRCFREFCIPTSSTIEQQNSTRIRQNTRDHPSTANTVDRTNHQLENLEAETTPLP", "test": "Inhibitory activity against Opioid receptor mu 1 binding to bovine striatal membrane", "parameters": "species or system Striatum"}, "[2]": {"test": "Inhibitory activity against Opioid receptor delta 1 binding to bovine striatal membrane"}, "[3]": {"test": "Inhibitory activity against Opioid receptor kappa1 binding to bovine striatal membrane"}, "[4]": {"molecular_target": "Mu-type opioid receptor (Bos taurus) (UniProt P79350)", "sequence (P79350 whole entry)": "as above", "test": "Effect at dose 40 nM on wash-resistant inhibition of [3H]DAMGO binding to TPCK-treated membranes", "parameters": "scale not given: the % may be the effect or the level left"}, "[5]": {"molecular_target": "T1, Mu-type opioid receptor", "test": "Binding affinity towards Opioid receptor mu 1 using [3H]DAMGO expressed as Kd"}}}
{"smiles": "CN1CC[C@]23c4c5ccc(O)c4O[C@@]2(C)C(=O)CC[C@@]3(NC(=O)CSSCC(=O)N[C@@]23CCC(=O)[C@]4(C)Oc6c(O)ccc7c6[C@@]42CCN(C)C3C7)C1C5", "values": [{"measurement": "IC50", "setting": "[1]", "value": 2.9, "unit": "nM"}]}
{"smiles": "O=C(CSSCC(=O)N[C@@]12CCC(=O)[C@@H]3Oc4c(O)ccc5c4[C@@]31CCN(CC1CC1)[C@@H]2C5)N[C@@]12CCC(=O)[C@@H]3Oc4c(O)ccc5c4[C@@]31CCN(CC1CC1)[C@@H]2C5", "values": [{"measurement": "IC50", "setting": "[2]", "value": 24, "unit": "nM"}, {"measurement": "IC50", "setting": "[1]", "value": 3.9, "unit": "nM"}, {"measurement": "IC50", "setting": "[3]", "value": 10, "unit": "nM"}]}
{"smiles": "OC(CS)C(O)CS", "note": "(centres undefined)", "values": [{"measurement": "Control", "setting": "[4]", "value": 107, "unit": "%"}]}
{"smiles": "CN1CC[C@]23c4c5ccc(O)c4O[C@H]2C(=O)CC[C@@]3(NC(=O)CSSCC(=O)N[C@@]23CCC(=O)[C@@H]4Oc6c(O)ccc7c6[C@@]42CCN(C)[C@@H]3C7)[C@H]1C5", "values": [{"measurement": "IC50", "setting": "[2]", "value": 11, "unit": "nM"}, {"measurement": "IC50", "setting": "[3]", "value": 41, "unit": "nM"}]}
{"smiles": "C[C@@]12Oc3c(O)ccc4c3[C@@]13CCN(CC1CC1)[C@H](C4)[C@]3(NC(=O)CSSCC(=O)N[C@@]13CCC(=O)[C@]4(C)Oc5c(O)ccc6c5[C@@]41CCN(CC1CC1)[C@@H]3C6)CCC2=O", "values": [{"measurement": "Kd", "setting": "[5]", "value": 0.4, "unit": "nM"}, {"measurement": "IC50", "setting": "[1]", "value": 1.4, "unit": "nM"}]}
